Earlier results in patent US20140065213A1, “Sustained Release Paracetamol Formulations” (GlaxoSmithKline, LLC, priority 2011, published 2014).

tmax (maximum plasma concentration) (oral doses of conventional immediate release tablets): 0.5 to 1.5 h | elimination half-life (reported): 1.9 to 2.5 h
SMILES: CC(=O)Nc1ccc(O)cc1 [paracetamol, N-acetyl-p-aminophenol]
